The values below come from US5885994A, “Tetrahydroquinoxaline dopamine D4 receptor antagonists” (Warner-Lambert Company, priority 1998, dated 1999).

Assay [1] relates to amphetamine-stimulated locomotion. In words: Blockade of amphetamine-stimulated locomotion in rats. The assay is classed as in vivo, rat. From the text:
PROTOCOL FOR THE BLOCKADE OF AMPHETAMINE-STIMULATED LOCOMOTION IN RATS
The blockade of amphetamine-stimulated locomotion procedure is a modification of the Locomotor Activity Protocol in the Omnitech Digiscan Activity Monitors described above. The blockade of amphetamine-stimulated locomotion procedure uses the central nervous system stimulant d-amphetamine to assess antipsychotic activity of dopaminergic agents.
Male Sprague-Dawley rats (Harlan Labs) were used for these studies. Drugs were dissolved in saline or water, and administered either orally (PO) or intraperitoneally (IP) in volumes of 5 mL/kg. Saline control rats and amphetamine (0.5 mg/kg IP) control rats are included with each study (n=4-6 rats per treatment group). For the IP studies, amphetamine is given 20 minutes prior to the drug, after which a 30 minute locomotor activity test is conducted. For the oral study, drug is dosed 30 minutes prior to the test, while amphetamine is given 15 minutes prior to the test, which allows time for oral absorption. Locomotor activity (centimeters travelled per 30 minute test) is measured in 16"×16" open chambers. Amphetamine generally produces a 2- to 3-fold increase in locomotion over saline controls. Drug effects are reported as percent reversal of amphetamine-stimulated locomotion. Significant changes in amphetamine-stimulated locomotion, relative to amphetamine treated controls, were determined by t-test. The dose which would reverse amphetamine-stimulated locomotion by 50% (ED50) and the 95% confidence limits were estimated by regression analysis.

Assay [2] concerns apomorphine-induced disruption of prepulse inhibition. As to the kind of experiment: Prepulse inhibition of acoustic startle model in rats. The assay is classed as in vivo. Particulars: rat, 30 mg/kg IP. From the text:
PROTOCOL FOR THE PREPULSE INHIBITION OF ACOUSTIC STARTLE MODEL IN RATS
Prepulse inhibition (PPI) of acoustic startle is a form of sensorimotor gating which occurs when a weak stimulus precedes a startling stimulus, resulting in diminution of the startle response amplitude. […] Thus, an animal model utilizing this phenomenon would be quite useful in the study of known and potential antipsychotic agents.
This indicates a possible role of DA D2-like receptor stimulation in reducing sensorimotor gating in the rat.
Male Sprague-Dawley rats from Harlan Labs (180-280 g) were housed in groups of five rats per cage and maintained on a 12-hour light/dark cycle with free access to food pellets and water. […]
Eight startle chambers (SR-LAB, San Diego Instruments) were used, each consisting of a Plexiglas cylinder resting on a Plexiglas frame within a ventilated sound-attenuating enclosure. […] The average responses during the 100 msec record window (100×1 msec readings) were recorded by microcomputer and interface assembly (San Diego Instruments). […] Sound levels were assessed with a Radio Shack dB meter. […]
The test session in all experiments consisted of a total of 90 trials after a 5-minute test acclimation period of 70 dB white noise. […] When the prepulse was paired with the 120 dB pulse, no obvious acoustic difference could be detected by the human ear as compared to the 120 dB pulse alone. […]

As usually defined, the ED50 is the dose that gives a 50% effect, or the effect in half of the subjects. In the case of `Cc1ccc(N2CCN(Cc3ccc4c(c3)NCCN4)CC2)cc1C` [Example 2, 6-[4-(3,4-Dimethylphenyl)piperazin-1-ylmethyl]-1,2,3,4-tetrahydroquinoxaline], the “blockade of amphetamine-stimulated locomotion (result in words)” value in assay [1] (rat, 1, 3, 10 and 30 mg/kg IP) is on record as “dose-dependent blockade”. In assay [1] (rat, PO, read-out: oral blockade of amphetamine-stimulated locomotion ED50), the 50% effective dose (ED50) turned out to be 5.8 mg/kg. The “blockade of apomorphine-induced disruption of prepulse inhibition in the Acoustic Startle test” value in assay [2] is “significant blockade”.
